These results are taken from US6894061B2, “Substituted dihydrophenanthridinesulfonamides” (Wyeth, priority 2002, dated 2005).

Read-outs that look alike come from different tables or passages of the source.

Data set [1] concerns IL-6. The data set is described as follows: IL-6 test procedure (IL-6 ELISA of media) in Ad5-wt-ERα infected HAECT-1 cells. In kind it is cell-based, human. The settings on record: for Emax: read-out: Interleukin-6 Efficacy (%); for IC50: read-out: Interleukin-6 IC50. The protocol:
After four hours, cells were washed with EBM-BSA and incubated overnight in the same medium. Following overnight incubation, cells were washed with EBM-BSA and infected for 2 hours with 6 mL of a 1:10 dilution of Ad5-3x(NFκB).Luc virus (Adenovirus luciferase expression vector driven by 3 repeats of the MHC NFκb site 5′ to the thymidine kinase promoter) in EBM-BSA. After two hours, cells were washed and incubated at 34° C. for 1 hour. […] Control (no ER infection) cells were processed as above without Ad5-wt-hERα virus infection.
ERα infected HAECT-1 cells or control cells were thawed, diluted 42× in warm EBM-BSA, plated into 96-well plates at 0.1 mL/well and incubated for 4 hours at 34° C. Test compounds were added to the cells as 2× stocks in EBM-BSA containing 2 ng/mL IL-1β (R&D Systems) and the 96-well plates were returned to the incubator (34° C.). After 15-20 hours, 100 μL aliquots of media were removed from the cells and assayed for IL-6 content using a BioSource human IL-6 ELISA Kit. Cells were subsequently washed with 300 μL of Dulbecco's phosphate buffered saline and lysed in 50 μL of Cell Culture Lysis Reagent (Promega). Luciferase was determined on a Wallac Victor^2 Luminometer (Gaithersburg, Md.) using 10 μL of lysate and mixing with 100 μL of Promega Luciferase Assay reagent. Creatine kinase was determined from the rate of increase in A340 following addition of 100 μL of CK assay reagent (Sigma, cat. No 47-10) to the remainder of the cell lysate.
For IC50 and EC50 calculations, mean IL-6, luciferase or CK values versus log10 of the compound concentration were fitted to a four parameter logistic equation. The IC50/EC50 value, ‘Hill slope’, upper and lower limits of the curve were iteratively estimated.

Data set [2] deals with creatine kinase. The data set is described as follows: Creatine kinase (CK) test procedure in Ad5-wt-ERα infected HAECT-1 cells. Type of data set: cell-based, human. The settings on record: Ad5-wt-ERα infected HAECT-1 cells; for Emax / EC50 / Emax at 10 µM: Homo sapiens, HAECT1; for Emax / Emax at 10 µM: read-out: Creatin Kinase Efficacy (%); for EC50: read-out: Creatin Kinase EC50.

In data set [3] the test system is ER/NF-κB. The data set is described as follows: ER/NF-κB luciferase reporter in Ad5-wt-ERα infected HAECT-1 cells. In kind it is cell-based, human. To be noted: Homo sapiens, HAECT1, IL-1β; for Emax: read-out: ER/NFκB Efficacy (%)*; for IC50: read-out: ER/NFκB IC50.

One may read the EC50 as the concentration at which the effect is half-maximal. In general, melting point refers to the temperature of the solid-liquid transition.

Consider `C[C@@H]1c2cc(F)ccc2-c2ccc(F)cc2N1S(=O)(=O)c1ccc(O)cc1O` (single isomer, unassigned) [Example 104], for which the Emax in data set [1] (Homo sapiens, HAECT1, IL-1β) was 43%; in data set [2] it was 9%. The IC50 in data set [1] (Homo sapiens, HAECT1, IL-1β) stood at 0.171 µM.

For the compound `C[C@@H]1c2ccccc2-c2ccc(F)cc2N1S(=O)(=O)c1cccc(O)c1` [Example 107, 3-{[(6R)-3-Fluoro-6-methylphenanthridin-5(6H)-yl]sulfonyl}phenol], in data set [1] (Homo sapiens, HAECT1, IL-1β), the Emax is 79% and the IC50 was 1.33 µM. In data set [2], the EC50 stood at 0.11 µM and the Emax was 20%.

Regarding `C[C@@H]1c2cc(F)ccc2-c2ccc(F)cc2N1S(=O)(=O)c1ccc(O)cc1` (single isomer, unassigned) [Example 99], in data set [1] (Homo sapiens, HAECT1, IL-1β), the Emax turned out to be 139% and the IC50 amounted to 0.341 µM.

With `C[C@H]1c2cc(F)ccc2-c2ccc(F)cc2N1S(=O)(=O)c1cccc(O)c1` (single isomer, unassigned) [Example 102], in data set [1] (Homo sapiens, HAECT1, IL-1β), the Emax amounted to 156% and the IC50 worked out at 0.0054 µM.

Regarding `CC1c2ccc(F)cc2-c2ccc(F)cc2N1S(=O)(=O)c1ccc(O)cc1` (stereo not shown) [Example 114, 4-[(3,9-Difluoro-6-mthylphenanthridin-5(6H)-yl)sulfonyl]ph nol], in data set [1] (IL-1β), the “Interleukin-6 Efficacy (%)” value is on record as 98% and the IC50 came to 0.078 µM. The “Creatin Kinase Efficacy (%)” value in data set [2] is given as 23%.

Consider `C[C@H]1c2ccccc2-c2ccc(Cl)cc2N1S(=O)(=O)c1ccc(O)cc1O` [Example 125, 4-{[(6S)-3-Chlro-6-methylphenanthridin-5(6H)-yl]sulfonyl}b nzne-1,3-diol], for which, in data set [1] (IL-1β), the “Interleukin-6 Efficacy (%)” value was found to be 94% and the IC50 came to 0.054 µM. Also, the “Creatin Kinase Efficacy (%)” value in data set [2] turned out to be 22%.

In turn, `CCC1c2cc(F)ccc2-c2ccccc2N1S(=O)(=O)c1ccc(OC(=O)CC(C)(C)C)cc1` (stereo not shown) [Example 53, 4-[(6-Ethyl-8-fluorophenanthridin-5(6H)-yl)sulfonyl]phenyl 3,3-dimethylbutanoate] yielded a melting point of 128 °C. Besides, in data set [3], the Emax was 76% and the IC50 came out at 0.764 µM. Also, in data set [2], the Emax at 10 µM was under 35%.

The compound `CC1c2cc(F)ccc2-c2ccccc2N1S(=O)(=O)c1cccc(O)c1` (stereo not shown) [Example 48, 3-[(8-fluoro-6-methylphenanthridin-5(6H)-yl)sulfonyl]phenol] displayed a melting point of 161 °C. Moreover, in data set [3], the Emax came to 107% and the IC50 is 0.525 µM. The Emax at 10 µM in data set [2] was under 35%.

For `CC1c2ccc(O)cc2-c2ccccc2N1S(=O)(=O)c1ccc(O)cc1` (stereo not shown) [Example 36, 5-[(4-Hydroxyphenyl)sulfonyl]-6-methyl-5,6-dihydrophenanthridin-9-ol], the melting point worked out at 212 °C. Besides, in data set [3], the Emax came to 60% and the IC50 amounted to 0.69 µM. Also, in data set [2], the Emax at 10 µM was under 35%.

In turn, `CC(C)(C)[C@@H]1c2ccccc2-c2ccccc2N1S(=O)(=O)c1ccc(O)cc1` [Example 15, 4-{[(R)-6-tert-Butylphenanthridin-5(6H)-yl]sulfonyl}phenol] registered a melting point of 187 to 189 °C. In data set [3], the Emax was 99% and the IC50 came to 0.016 µM. Also, the Emax at 10 µM in data set [2] was under 35%.

`CC(C)(C)C1c2ccccc2-c2ccccc2N1S(=O)(=O)c1ccc(O)cc1` (stereo not shown) [Example 14, 4-[(6-tert-Butylphenanthridin-5(6H)-yl)sulfonyl]phenol] displayed a melting point of 192 to 194 °C. Besides, in data set [3], the Emax was 105% and the IC50 was found to be 0.108 µM. In addition, in data set [2], the concentration for a half-maximal effect (EC50) amounted to 0.757 µM and the Emax was 50%.

`CCC1c2ccccc2-c2cc(-c3cccc4c3oc3ccccc34)ccc2N1S(=O)(=O)c1ccc(O)cc1` (stereo not shown) [Example 31, 4-[(2-Dibenzo[b,d]furan-4-yl-6-ethylphenanthridin-5(6H)-yl)sulfonyl]phenol]: the melting point fell in the range of 218 to 220 °C. Also, in data set [3], the Emax amounted to 108% and the IC50 is 0.254 µM. In addition, the Emax at 10 µM in data set [2] is under 35%.

On to `Cc1cc(S(=O)(=O)N2c3ccccc3-c3cccc(O)c3C2C)ccc1O` (stereo not shown) [Example 38, 5-[(4-Hydroxy-3-methylphenyl)sulfonyl]-6-methyl-5,6-dihydrophenanthridin-7-ol], for which the melting point was 258 °C. Besides, the IC50 in data set [3] was over 10 µM. Moreover, in data set [2], the Emax at 10 µM is under 35%.

`C[C@H]1c2ccccc2-c2ccccc2N1S(=O)(=O)c1ccc(O)cc1` (single isomer, unassigned) [Example 2] showed a melting point of 176 to 178 °C. In data set [3], the Emax was 103% and the IC50 came out at 0.04 µM. Moreover, in data set [2], the EC50 came to 0.42 µM and the Emax was 28%.

Regarding `C[C@@H]1c2cc(F)ccc2-c2ccc(F)cc2N1S(=O)(=O)c1cccc(O)c1` (single isomer, unassigned) [Example 101], in data set [1] (Homo sapiens, HAECT1, IL-1β), the Emax was 74% and the IC50 was 1.28 µM.

As for `CCC1c2cc(F)ccc2-c2ccccc2N1S(=O)(=O)c1ccc(O)c(Cl)c1` (stereo not shown) [Example 46, 2-Chloro-4-[(6-ethyl-8-fluorophenanthridin-5(6H)-yl)sulfonyl]phenol], the melting point lay in the range of 174 to 177 °C. In data set [3], the IC50 is over 10 µM. Besides, the Emax at 10 µM in data set [2] is under 35%.

Regarding `CC1c2cc(Cl)ccc2-c2cc(Br)ccc2N1S(=O)(=O)c1ccc(O)cc1` (stereo not shown) [Example 62, 4-[(2-Bromo-8-chloro-6-methylphenanthridin-5(6H)-yl)sulfonyl]phenol], the melting point fell in the range of 213 to 215 °C. Also, in data set [3], the Emax came out at 90% and the IC50 amounted to 0.12 µM. Moreover, the Emax at 10 µM in data set [2] was under 35%.

`CCC1c2cc(F)ccc2-c2cc(Br)ccc2N1S(=O)(=O)c1ccc(O)cc1` (stereo not shown) [Example 44, 4-[(2-Bromo-6-ethyl-8-fluorophenanthridin-5(6H)-yl)sulfonyl]phenol] displayed a melting point of 220 to 221 °C. In addition, in data set [3], the Emax amounted to 94% and the IC50 is 0.085 µM. In addition, the Emax at 10 µM in data set [2] was under 35%.

For `O=S(=O)(c1ccc(O)cc1)N1c2ccccc2-c2ccccc2C1c1ccccc1` (stereo not shown) [Example 9, 4-[(6-Phenylphenanthridin-5(6H)-yl)sulfonyl]phenol], the melting point was in the range of 217 to 220 °C. Besides, in data set [3], the Emax worked out at 89% and the IC50 is 0.125 µM. In data set [2], the EC50 came to 0.455 µM and the Emax is 26%.

For `CC1c2cc(F)ccc2-c2ccccc2N1S(=O)(=O)c1ccc(O)c(O)c1` (stereo not shown) [Example 50, 4-[(8-Fluoro-6-methylphenanthridin-5(6H)-yl)sulfonyl]benzene-1,2-diol], the melting point fell in the range of 165 to 170 °C. In addition, in data set [3], the IC50 was over 10 µM. In addition, the Emax at 10 µM in data set [2] was under 35%.

Consider `C[C@H]1c2cc(F)ccc2-c2ccc(F)cc2N1S(=O)(=O)c1ccc(O)cc1` (single isomer, unassigned) [Example 100], for which, in data set [1] (Homo sapiens, HAECT1, IL-1β), the Emax amounted to 196% and the IC50 was determined as 0.0069 µM.

In turn, `CCC(=O)Oc1ccc(S(=O)(=O)N2c3ccccc3-c3ccc(F)cc3C2CC)cc1` (stereo not shown) [Example 54, 4-[(6-Ethyl-8-fluorophenanthridin-5(6H)-yl)sulfonyl]phenyl propionate] had a melting point of 111 to 112 °C. In data set [3], the Emax is 87% and the IC50 turned out to be 0.423 µM. For the same compound, in data set [2], the EC50 was 0.839 µM and the Emax is 24%.

Turning to `CC1c2cc(F)ccc2-c2cc(Br)ccc2N1S(=O)(=O)c1ccc(O)cc1` (stereo not shown) [Example 45, 4-[(2-Bromo-8-fluoro-6-methylphenanthridin-5(6H)-yl)sulfonyl]phenol], the melting point is 237 to 239 °C. Also, in data set [3], the Emax stood at 92% and the IC50 was 0.357 µM. Also, the Emax at 10 µM in data set [2] was under 35%.

Compound `CCC1c2ccccc2-c2cc(-c3cccc(O)c3)ccc2N1S(=O)(=O)c1ccc(O)cc1` (stereo not shown) [Example 30, 3-{6-Ethyl-5-[(4-hydroxyphenyl)sulfonyl]-5,6-dihydrophenanthridine-2-yl}phenol] showed a melting point of 105 °C. For the same compound, in data set [3], the Emax worked out at 76% and the IC50 amounted to 0.053 µM. Also, the Emax at 10 µM in data set [2] was under 35%.

In turn, `Cc1cc(S(=O)(=O)N2c3ccccc3-c3ccccc3C2C)cc(C)c1O` (stereo not shown) [Example 59, 2,6-Dimethyl-4-[(6-methylphenanthridin-5(6H)-yl)sulfonyl]phenol] had a melting point of 211 to 213 °C. In addition, in data set [3], the Emax was found to be 102% and the IC50 turned out to be 1.72 µM. Further, in data set [2], the EC50 amounted to 2.93 µM and the Emax was 22%.
